From patent US20220389026A1, “TETRACYCLIC COMPOUND USED AS CDC7 INHIBITOR” (Chia Tai Tianqing Pharmaceutical Group Co., Ltd., priority 2019, published 2022)
Where two headings read alike, the source gives them in different places.

Tests used:
CDC7/DBF4 [1] = biological target: T1, CDC7/DBF4 (Homo sapiens, UniProt O00311); test: Inhibitory effect against activity of Cdc7/DBF4 kinase (ADP-Glo kit); type: biochemical; set-up: purchased Promega; conditions: 10 μM ATP, 25° C., 60 min
Method: Experimental Example 1. Detection of Inhibitory Effect of Compounds Against Activity of Cdc7/DBF4 Kinase
Cdc7/DBF4 kinase detection kit purchased from Promega; and
(§1) Nivo multi-marker analyzer (PerkinElmer).
An enzyme, a substrate, adenosine triphosphate and an inhibitor were diluted with the kinase buffer in the kit.
A test compound was serially 5-fold diluted to an 8th concentration, i.e., from 10 μM to 0.13 nM, with the DMSO concentration being 5%, and the duplicate well experiment was set up. To a microplate were added 1 μL of inhibitors of various concentration gradients, 2 μL of CDC7/DBF4 kinase (6.25 ng), 2 μL of a mixture of substrate and ATP (10 μM adenosine triphosphate, 0.2 μg/μL substrate), and the final concentration gradient of the compound was diluted from 2 μM to 0.025 nM. The reaction system was left reacting at 25° C. for 60 min. After the reaction was completed, 5 μL of ADP-Glo reagent was added to each well, and the reaction was continued at 25° C. for 40 min. After the reaction was completed, 10 μL of the kinase detection reagent was added to each well. After 30 min of reaction at 25° C., the chemiluminescence was read using a multi-marker analyzer, with an integration time of 0.5 s.
The original data were converted to inhibition rate using the equation (Sample−Min)/(Max−Min)×100%, and the IC50 value was then curve fitted using four parameters (obtained from the “log(inhibitor) vs. response-Variableslope” model in GraphPadPrism). Table 1 provides the inhibitory activity of the compounds disclosed herein against Cdc7/DBF4 kinase.

COLO205 cells = test: Inhibitory activity against COLO205 cell proliferation (CellTiter-Glo); type: cell-based; conditions: Homo sapiens, COLO 205, 72 h; 3 days incubation
Method: Experimental Example 2. Detection of Inhibitory Effect of Compounds Against Activity of Colo205 Cells
1640 medium; fetal bovine serum; penicillin/streptomycin antibiotics purchased from Wisent;
CellTiter-Glo (chemiluminescence detection reagent for cell viability) reagent purchased from Promega;
COLO205 cell line purchased from Wuhan Procell Life Science&Technology Co., Ltd; and
as §1
COLO205 cells were plated on to white 96-well plates by adding 80 μL of cell suspension (containing 3000 COLO205 cells) to each well. The cell plate was incubated in a CO2 incubator overnight.
A test compound was serially 3-fold diluted to an 8th concentration, i.e., from 2 mM to 920 nM, and the duplicate well experiment was set up. […] Another cell plate was read for signal values on the day of compound addition, and these values were used as the […] in data analysis. The chemiluminescence detection reagent for cell viability was added to this cell plate at 25 μL per well and the luminescence signals were stabilized by incubation at room temperature for 10 min. Readings were taken using a multi-marker analyzer.
The chemiluminescence detection reagent for cell viability was added to the cell plate at 25 μL per well and the luminescence signals were stabilized by incubation at room temperature for 10 min. […]

CDC7/DBF4 [2] = biological target: T1, CDC7/DBF4; conditions: cited from earlier work
[3] = cited from earlier work
[4] = test system: colo205 cell line with high expression of Cdc7; conditions: read-out: COL0205 IC50; cited from earlier work
tumors in 25 PDX models = conditions: cited from earlier work

T1 sequence (O00311 whole entry): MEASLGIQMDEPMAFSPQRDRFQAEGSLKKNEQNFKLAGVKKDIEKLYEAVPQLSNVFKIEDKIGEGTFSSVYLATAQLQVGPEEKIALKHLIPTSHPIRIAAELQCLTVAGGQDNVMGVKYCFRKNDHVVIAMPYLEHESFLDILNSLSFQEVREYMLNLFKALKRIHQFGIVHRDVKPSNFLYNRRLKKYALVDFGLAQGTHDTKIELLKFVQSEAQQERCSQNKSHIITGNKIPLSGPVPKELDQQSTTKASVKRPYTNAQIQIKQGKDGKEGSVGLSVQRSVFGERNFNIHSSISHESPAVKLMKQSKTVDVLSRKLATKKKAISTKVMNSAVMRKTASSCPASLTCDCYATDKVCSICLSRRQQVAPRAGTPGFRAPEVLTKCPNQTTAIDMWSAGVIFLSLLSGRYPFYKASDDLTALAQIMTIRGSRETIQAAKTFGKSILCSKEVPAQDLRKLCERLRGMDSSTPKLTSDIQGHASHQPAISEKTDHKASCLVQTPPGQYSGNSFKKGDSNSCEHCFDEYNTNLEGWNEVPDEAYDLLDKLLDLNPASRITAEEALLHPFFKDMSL
T1 sequence (Q9UBU7 whole entry partner): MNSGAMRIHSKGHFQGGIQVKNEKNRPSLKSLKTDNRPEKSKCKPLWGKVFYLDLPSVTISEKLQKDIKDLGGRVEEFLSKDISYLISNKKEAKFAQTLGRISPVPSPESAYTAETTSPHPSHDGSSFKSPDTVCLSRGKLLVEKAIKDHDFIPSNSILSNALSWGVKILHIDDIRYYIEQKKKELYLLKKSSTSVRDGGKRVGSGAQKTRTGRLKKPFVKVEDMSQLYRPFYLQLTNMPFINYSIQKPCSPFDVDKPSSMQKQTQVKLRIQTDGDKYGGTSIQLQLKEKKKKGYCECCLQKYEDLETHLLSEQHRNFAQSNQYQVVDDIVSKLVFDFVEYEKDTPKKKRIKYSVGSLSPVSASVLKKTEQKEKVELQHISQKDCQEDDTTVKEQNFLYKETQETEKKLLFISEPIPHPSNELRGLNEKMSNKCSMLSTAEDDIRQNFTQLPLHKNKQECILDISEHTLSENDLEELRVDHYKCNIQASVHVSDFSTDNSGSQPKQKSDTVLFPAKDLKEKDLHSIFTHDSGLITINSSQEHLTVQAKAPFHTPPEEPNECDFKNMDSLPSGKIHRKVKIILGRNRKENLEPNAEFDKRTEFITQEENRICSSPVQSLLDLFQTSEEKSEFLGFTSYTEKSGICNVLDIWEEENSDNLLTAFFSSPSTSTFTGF

SMILES: O=c1[nH]c(C2CC3CCN2CC3)nc2c3c(oc12)-c1c[nH]nc1CCC3 (single isomer, unassigned) [Compound 1-1]
- IC50 (CDC7/DBF4 [1]): 1.49 nM

SMILES: O=c1[nH]c(C2CC3CCN2CC3)nc2c3c(oc12)-c1c[nH]nc1CCC3 (single isomer, unassigned) [Compound 1-2]
- IC50 (CDC7/DBF4 [1]): 2.8 nM
- IC50 (COLO205 cells): 51.7 nM

SMILES: O=c1[nH]c([C@@H]2CCCN2)nc2c3c(oc12)-c1c[nH]nc1CCC3 [Compound 2-1]
- IC50 (CDC7/DBF4 [1]): 0.95 nM

SMILES: O=c1[nH]c([C@H]2CCCN2)nc2c3c(oc12)-c1c[nH]nc1CCC3 [Compound 2-2]
- IC50 (CDC7/DBF4 [1]): 1.41 nM

SMILES: CN1CCC[C@H]1c1nc2c3c(oc2c(=O)[nH]1)-c1c[nH]nc1CCC3 [Compound 3-1]
- IC50 (CDC7/DBF4 [1]): 0.6 nM

SMILES: CN1CCC[C@@H]1c1nc2c3c(oc2c(=O)[nH]1)-c1c[nH]nc1CCC3 [Compound 3-2]
- IC50 (CDC7/DBF4 [1]): 1.97 nM

SMILES: Cc1[nH]ncc1-c1cc2nc([C@@H]3CC4CCN3CC4)[nH]c(=O)c2s1 [TAK-931]
- IC50 (CDC7/DBF4 [2]): 2.59 nM
- clearance rate in vivo [3]: high clearance rate
- half-life in vivo [3]: short half-life
- IC50 [4]: 85.5 nM
- inhibitory activity against tumors in PDX models (tumors in 25 PDX models): excellent inhibitory activity
